Data published in PMC5600277 (Neuropharmacology, 2017).
Like-named read-outs stand apart in the source and are kept apart here.

Tests used:
Type in all cases: cell-based
[1] = target: T1, GABAρ receptor (GABAAR ρ1) (Homo sapiens, UniProt P24046); experiment: two-electrode voltage clamp in Xenopus oocytes, […] potentiation at […]; conditions: read-out: % potentiation at 10 μM
GLIC [2] = target: T2, GLIC (Gloeobacter violaceus, UniProt Q7NDN8); experiment: two-electrode voltage clamp in Xenopus oocytes, […] inhibition at […]; conditions: read-out: % inhibition at 30 μM
T2 sequence (Q7NDN8 44-359): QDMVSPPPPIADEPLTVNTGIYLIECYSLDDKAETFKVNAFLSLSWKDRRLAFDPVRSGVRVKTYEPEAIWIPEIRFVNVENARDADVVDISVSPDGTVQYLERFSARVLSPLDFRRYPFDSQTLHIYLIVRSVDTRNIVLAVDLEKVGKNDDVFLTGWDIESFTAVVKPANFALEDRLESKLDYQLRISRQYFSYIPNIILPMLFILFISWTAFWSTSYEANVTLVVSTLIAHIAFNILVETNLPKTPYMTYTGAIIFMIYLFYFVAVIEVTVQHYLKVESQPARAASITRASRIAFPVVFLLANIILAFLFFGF

[3] = target: T1, GABAρ receptor (GABAAR ρ1); experiment: as above; conditions: read-out: % inhibition at 10 μM
GLIC [4] = target: T2, GLIC; experiment: as above; conditions: read-out: % inhibition at 30 μM; remark: listed apart in the source
GLIC [5] = target: T2, GLIC; experiment: as above; conditions: read-out: % inhibition at 100 μM

T1 sequence (P24046 22-479): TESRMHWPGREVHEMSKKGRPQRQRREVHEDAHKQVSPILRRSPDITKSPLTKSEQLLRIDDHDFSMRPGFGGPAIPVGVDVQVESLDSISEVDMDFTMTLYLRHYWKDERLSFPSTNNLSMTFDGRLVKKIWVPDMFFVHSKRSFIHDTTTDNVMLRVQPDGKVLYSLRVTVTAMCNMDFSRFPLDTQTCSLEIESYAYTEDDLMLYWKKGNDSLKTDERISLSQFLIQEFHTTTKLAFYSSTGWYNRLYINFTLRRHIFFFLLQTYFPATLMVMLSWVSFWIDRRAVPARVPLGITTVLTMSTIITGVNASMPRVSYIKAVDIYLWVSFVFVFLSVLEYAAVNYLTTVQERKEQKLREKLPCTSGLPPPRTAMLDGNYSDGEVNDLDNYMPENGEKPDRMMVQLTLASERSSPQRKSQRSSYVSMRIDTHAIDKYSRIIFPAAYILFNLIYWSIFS

For `C[C@]12CC[C@@H](O)C[C@@H]1CC[C@@H]1[C@@H]2CC[C@]2(C)[C@@H](C(=O)CO)CC[C@@H]12` [5α-THDOC], the activation at 10 µM [1] was 42 ± 2% and the inhibition at 30 µM (GLIC [2]) was 11 ± 2%.
Compound `C[C@]12CC[C@@H](O)C[C@H]1CC[C@@H]1[C@@H]2CC[C@]2(C)[C@@H](C(=O)CO)CC[C@@H]12` [5β-THDOC] has an inhibition at 10 µM [3] of 25 ± 2% and an inhibition at 30 µM (GLIC [4]) of 67 ± 3%.
In the case of `CCCC(C)C1(CC)C(=O)NC(=O)NC1=O` (centres unmarked) [PB, pentobarbital], the inhibition at 100 µM (GLIC [5]) is reported as 26 ± 6%.
